The values below come from patent US12648948B2, “Methods and compositions for treating cancer” (UNITED STATES GOVERNMENT AS REPRESENTED BY THE DEPARTMENT …, priority 2017, dated 2026).

Data set [1] deals with primary embryonic cultures and differentiated PC12 cells. Particulars: at dosages that inhibit activation of JNKs, after trophic withdrawal; cited from earlier work.
Data set [2] relates to GBM9 cells. The data set can be described thus: Annexin-FACS assay and Caspase 3/7 activation. Particulars: GBM9 cells, 72 h, Annexin-FACS. It is filed as cell-based, human. The protocol:
Annexin assay was performed by using Annexin—V-FLUOS Staining kit (Roche applied Science). Cells (1×10^6) were plated in 6 well plates and treated with drugs or vehicle alone. After 72 hours cells were trypsinized and washed 2 times with 1×PBS. The cells were incubated for 15 minutes at room temperature with Propidium Iodide and Annexin—V-FLUOS labeling solution in incubation buffer. Annexin and/or PI positive cells were detected by Flow Cytometry.
Caspase activity in the supernatant was measured using the Caspase-Glo 3/7 Assay (Promega, G8091) following manufacturer's instructions. Briefly, 72 hours after treatments, cells were washed by cold PBS and total cell lysates were prepared. 50 μg of total protein per sample was added per well of a 96 well plate and was incubated with 100 μl Caspase 3/7 reagent for 30 minutes. The luminescence of each sample was measured using a luminometer. All experiments included at least 3 replicates per group and were repeated 3 times.

Data set [3] has as its system U87EGFRwt and U87EGFRvIII cells. The data set can be described thus: AlamarBlue cell viability assay, established GBM cell lines. It counts as cell-based, human. Particulars: established GBM cell lines, 72 h; for Cell viability, inhibitor alone: without erlotinib. The protocol:
(§1) Cell viability assay was conducted using AlamarBlue cell viability assay kit (ThermoFisher) following manufacturer's protocol. Cells were cultured in Corning 96-well black plates with clear bottom (5000 cells/well). Drugs were added to cells for 72 hour following detection using POLARstar Omega Microplate Reader (excitation at 544 nm and emission at 590 nm) (BMG LABTECH, Germany).

Data set [4] relates to GBM9 and GBM39 neurospheres. The data set can be described thus: AlamarBlue cell viability assay, patient derived GBM neurospheres. Particulars: 72 h; for Cell viability, inhibitor combined with erlotinib: erlotinib 100 nM, SP600125, U0126, R428, thalidomide 1 μM, Enbrel 100 nM; for Cell viability, inhibitor alone: without erlotinib, 1 μM. It is filed as cell-based, human. On the procedure:
as §1
(Alamar Blue is a resazurin reagent that responds to reducing activity.)

Data set [5] relates to GBM. Particulars: cited from earlier work.
In data set [6] the test system is GBM9 intracranial tumors. The data set can be described thus: Orthotopic (intracranial) GBM9 model, survival and bioluminescence imaging. Particulars: erlotinib 50 mg/kg oral gavage and/or thalidomide 150 mg/kg i.p., 10 days; repeated with afatinib.
Experimental: For the orthotropic model, 1×10^5 GBM9 cells expressing firefly luciferase were injected into the right corpus striatum of the brains of 6-8-week-old nude mice using a stereotactic frame. […] The mice were treated with erlotinib 50 mg/kg by oral gavage and/or intraperitoneal (i.p.) injection of 150 mg/kg thalidomide for 10 consecutive days. Bioluminescence imaging (BLI) was performed to record the growth of tumor every 5 days. Kaplan-Maier survival curves were calculated using GraphPad Prism 7.0 software. Mice were monitored and sacrificed when neurological signs appeared or after 40 days.
The test system of data set [7] is GBM9 subcutaneous tumors. The data set can be described thus: Subcutaneous GBM9 xenograft tumor growth. It counts as in vivo, athymic nude mice. Particulars: erlotinib 50 mg/kg oral gavage, SP600125 40 mg/kg i.p., thalidomide 150 mg/kg i.p., daily for 10 days. The protocol:
4 to 6 weeks old female athymic nude mice were purchased from Charles River Laboratories. The mice were housed in plastic cages (4-5 mice per cage) in a room with a 12 hour day-night cycle. 1×10^6 GBM9 cells were subcutaneously injected into the right flank of each nude mouse. […] The mice were randomly divided into control and treatment groups, mice were treated with drugs using the indicated doses. For combination treatment, both drugs were given concurrently for indicated periods. Tumor dimensions were measured by caliper every two days and tumor volumes calculated by the formula: volume=length×width×width/2. Mice were sacrificed when tumors reached over […] or 24 days from the first day of treatment.

In data set [8] the test system is JNK-Axl-ERK signaling pathway. The data set can be described thus: Western blot, erlotinib-induced JNK-Axl-ERK signaling pathway in glioma cells. It counts as cell-based, human. Particulars: GBM9, GBM39 neurospheres and U87EGFRwt cells. On the procedure: Western blot analysis was performed according to standard protocols.
On the technique in general: A western blot detects proteins with antibodies after separation by electrophoresis.

Data set [9] has as its system TNF. The data set can be described thus: TNF mRNA (qRT-PCR) and TNF ELISA in glioma cells. It counts as cell-based, human. Particulars: GBM9 and U87EGFRwt, thalidomide 1 μM. On the procedure: Total RNA was isolated by TRIzol Reagent (Ambion). cDNA Reverse Transcription were performed by using High-Capacity cDNA Reverse Transcription Kit (Applied Biosystems). PCR primers were synthesized by IDT (Coralville, IA). Each PCR was carried out in triplicate in a 20 μl volume using SYBR Green Master Mix (Applied Biosystems) for 15 minutes at 95° C. for initial denaturing, followed by 40 cycles of 95° C. for 15 s and 60° C. for 60 s in ViiA 7 Real-Time PCR System (Applied Biosystems). At least two independent experiments were done. Values for each gene were normalized to expression levels of GAPDH mRNA.
2×10^6 cells were incubated in serum-free or EGF free medium containing different concentrations of erlotinib or DMSO. After 48 hours, supernatant and cell lysates were collected. Supernatant medium was concentrated 5-10-fold with Pierce protein concentrator (ThermoFisher). TNF protein concentration in supernatant, cell lysates and tissue extracts was determined by ELISA using a commercial TNF detection kit (ThermoFisher) according to manufacturer's instructions. Additionally, GAS6 protein concentration in supernatant was measured by ELISA kit (LifeSpan BioSciences).
On the technique in general: Real-time PCR tracks product formation cycle by cycle.

For data set [10] the following is noted: mouse, in vivo.
For data set [11], the system named is JNK-Axl-ERK signaling axis. The data set can be described thus: Signal transduction in intracranial GBM9 tumors (Western blot, IHC). It counts as in vivo, mice. Particulars: thalidomide given with erlotinib. The protocol: To detect the in vivo levels of TNF, 1×10^6 GBM9 cells were injected into the right flanks of nude mice. When the subcutaneous tumor reached a volume of around 200 mm^3, the mice were treated with erlotinib to monitor the upregulation of TNF protein. The animals were dosed consecutively for 1, 2, 7 or 14 days and then sacrificed. The animals without treatment were considered as control (0-day treatment). Tumor tissues were rinsed in PBS and protein was extracted to analyze the TNF levels using ELISA and also used for western blot. To detect the protein expression in mice brain tumor tissues upon drug treatment, the same procedure was performed in orthotopic models. Additionally, with orthotopic models, mice were divided into four groups (control gavage group, erlotinib group, thalidomide group and erlotinib plus thalidomide, n=3). After 48 hours treatment tumors were harvested and subjected to Western blot and immunostaining.
Tumors from nude mice brains were fixed in 10% formalin and embedded in paraffin. Paraffin-embedded sections were cut at five-micrometer thickness. Immunohistochemical staining was performed using the ABC streptavidin-biotin method with the Vectastain ABC kit (Vector Laboratories, Burlingame, CA, USA) according to the manufacturer's protocol. Briefly, after deparaffinization and rehydration, endogenous peroxidase activity was quenched by a 10 min incubation in 3% H2O2. For antigen retrieval, the tissue sections were boiled in 10 mM sodium citrate buffer (pH 6.0) for 20 minutes. Binding of primary anti-pERK (1:100, Cell Signaling Technology, 4376) or anti-pJNK antibody (1:200, Cell signaling Technology, 4668) or anti-pAXL(1:400, R&D, AF2228) was carried out overnight at 4° C. The signal was detected by using the Sigmafast 3,3′-Diaminobenzidine tablets (DAB; Sigma, St. Louis MO). The sections were counterstained lightly with hematoxylin. The IHC staining intensity was scored semiquantitatively as: 0=No positive staining; 1=1-25% tumor cells stained, 2=26%-75% tumor cells stained and 3=>75% tumor cells stained.

For data set [12], the system named is EGFR. The data set can be described thus: Western blot, EGFR activation in U87EGFRwt cells. It counts as cell-based, human. Particulars: serum starved, cetuximab overnight, EGF 50 ng/ml 15 min.
The test system of data set [13] is ERK. The data set can be described thus: Western blot, ERK activation (pERK) in glioma cells. Particulars: U87EGFRwt cells, serum starved; cetuximab overnight; EGF 50 ng/ml 15 min.
Experimental: Western blot analysis was performed according to standard protocols. In all experiments, before the addition of EGF or erlotinib established cells were cultured overnight in serum free DMEM and primary GBM neurospheres were EGF starved overnight. Cells not treated with EGF or erlotinib were also serum or EGF starved.
[14] abbreviates: single-arm phase II trial, GBM patients at first recurrence.

As to `CCSCc1ccc2c(c1)c1c3c(c4c5cc(CSCC)ccc5n5c4c1n2[C@H]1C[C@](O)(C(=O)OC)[C@]5(C)O1)CNC3=O` [CEP-1347], the Neuronal survival result in data set [1] is on record as “promotes neuronal survival”.
As to `Nc1nc(Nc2ccc3c(c2)CC[C@@H](N2CCCC2)CC3)nn1-c1cc2c(nn1)-c1ccccc1CCC2` [R428], the “Number of viable (unstained) cells, inhibitor combined with erlotinib” value (“Number … inhibitor combined with erlotinib” for short) in data set [2] was “decreases the number of viable cells”. Moreover, in data set [3], the “Cell viability, inhibitor combined with erlotinib” value (“Cell viability, inhibitor combined” for short) was “sensitive to erlotinib” and the “Cell viability, inhibitor alone” value is listed as “does not affect the viability of these cells”. In addition, in data set [4], the “Cell viability, inhibitor combined” value was “sensitive to erlotinib” and the “Cell viability, inhibitor alone” value is reported as “does not affect the viability of these cells”.
For the compound `N#CC(=C(/N)Sc1ccccc1N)/C(C#N)=C(\N)Sc1ccccc1N` [U0126], in [2], the “Number … inhibitor combined with erlotinib” value is on record as “decreases the number of viable cells”. Besides, the “Cell viability, inhibitor combined” value in [3] is recorded as “a combined inhibition of EGFR with ERK or JNK leads to a significant cell death”; in data set [4], “significant cell death”. Also, the “Cell viability, inhibitor alone” value in data set [3] is given as “also resistant to EGFR inhibition or JNK inhibition or ERK inhibition alone”; in [4] it was “resistant to JNK or ERK inhibition alone”.
Turning to `COc1cc2ncnc(Nc3ccc(F)c(Cl)c3)c2cc1OCCCN1CCOCC1` [gefitinib], in [5] (setting [14]), the “Median overall survival (OS)” value is reported as “about 39 weeks” and the Radiographic responses result was “No radiographic responses”.
On to `O=C1CCC(N2C(=O)c3ccccc3C2=O)C(=O)N1` (stereo not shown) [thalidomide], for which the Survival of mice entry in data set [6] is recorded as “neither erlotinib nor thalidomide alone had a significant effect”. Besides, in [7], the “Growth of subcutaneous tumors” value is “no significant effect on the growth of tumors”. Moreover, the “Erlotinib-induced activation of the JNK-Axl-ERK signaling pathway in presence of TNF inhibitor” value in data set [8] is on record as “interruption of the erlotinib-induced activation of the JNK-Axl-ERK signaling pathway”. Also, the “Erlotinib-induced increase in TNF secretion in presence of thalidomide” value in data set [9] is listed as “block the erlotinib-induced increase in TNF secretion”. Moreover, the “Clinical efficacy in GBM patients” value in [5] (human, in vivo) is on record as “without success”. In addition, the “Body weight of orthotopic models” value in [10] is recorded as “Body weight losses”. Besides, the “JNK-Axl-ERK signaling axis in intracranial tumors (Western blot)” value in data set [11] (erlotinib 50 mg/kg) is recorded as “blocked the EGFR inhibition induced upregulation of the TNF-JNK-Axl-ERK signaling axis”. For the same compound, in data set [11] (orthotopic model), the “pAxl, pJNK and pERK immunostaining of brain sections” value is listed as “inhibits erlotinib induced pAxl-pJNK-pERK activation”. For the same compound, the “Number … inhibitor combined with erlotinib” value in data set [2] is “decreases the number of viable cells”. The “Cell viability, inhibitor combined” value in data set [3] and in [4] was “had the same effect” throughout. The “Cell viability, thalidomide combined with afatinib” value in data set [4] (afatinib 100 nM, thalidomide 1 μM) was “sensitizes”.
As to “EGF: Recombinant human EGF from Peprotech”, in [12], the “Basal EGFR activation” value is “further increases in EGFR and ERK activation”. For the same compound, the “Basal ERK activation” value in data set [13] is “further increases in EGFR and ERK activation”.
In the case of Etanercept, in data set [8], the “Erlotinib-induced activation of the JNK-Axl-ERK signaling pathway in presence of TNF inhibitor” value is “interruption of the erlotinib-induced activation of the JNK-Axl-ERK signaling pathway”. Besides, the “Number … inhibitor combined with erlotinib” value in data set [2] is “decreases the number of viable cells”. The “Cell viability, inhibitor combined” value in data set [3] and in data set [4] was “sensitive to the effects of EGFR inhibition” in each case.
